In patent publication US20110143948A1, “MOLECULAR SIGNATURES AND BIOMARKERS ASSOCIATED WITH MELANOMA AND METHODS OF USE THEREOF” (priority 2008, published 2011):

Test system: ncRNAs (SEQ ID NO 28-89)
Test: ncRNA arrays of melanocytes, keratinocytes, normal skin, melanoma cell lines and patient samples
Design: species or system human
Settings: for ncRNA array expression, patient 2: melanoma patient 2 sample compared to normal skin; for ncRNA array expression, patient 3: melanoma patient 3 sample compared to normal skin; for ncRNA array expression, patient 4: melanoma patient 4 sample compared to normal skin; for ncRNA array expression, patient 5: melanoma patient 5 sample compared to normal skin; for ncRNA array expression, patient 6: melanoma patient 6 sample compared to normal skin; for ncRNA array expression, patient 7: melanoma patient 7 sample compared to normal skin; for ncRNA array expression, patient 8: melanoma patient 8 sample compared to normal skin; for ncRNA array expression, patient 9: melanoma patient 9 sample compared to normal skin; for ncRNA array expression, patient 10: melanoma patient 10 sample compared to normal skin; for ncRNA array expression, patient 19: melanoma patient 19 sample compared to normal skin; for ncRNA array expression, patient 20: melanoma patient 20 sample compared to normal skin; for ncRNA array expression, patient 21: melanoma patient 21 sample compared to normal skin; for ncRNA array expression, patient 22: melanoma patient 22 sample compared to normal skin; for ncRNA array expression, patient 23: melanoma patient 23 sample compared to normal skin; for ncRNA array expression, patient 24: melanoma patient 24 sample compared to normal skin; for ncRNA array expression, patient 25: melanoma patient 25 sample compared to normal skin; for ncRNA array expression, patient 26: melanoma patient 26 sample compared to normal skin; for ncRNA array expression, patient 27: melanoma patient 27 sample compared to normal skin; for ncRNA array expression, patient 28: melanoma patient 28 sample compared to normal skin; for ncRNA array expression, patient 29: melanoma patient 29 sample compared to normal skin; for ncRNA array expression, patient 30: melanoma patient 30 sample compared to normal skin
Procedure: An ncRNA array platform that contains over 10,000 putative (>200 nt) ncRNAs including most of the known ncRNAs in mouse and human was conducted to evaluate ncRNAs within melanoma. Lack of coding potential was estimated by an algorithm that scores various characteristics of protein-coding genes, including open reading frame length, synonymous/non-synonymous base substitution rates and similarity to known proteins. These arrays provide the first generation of tools designed to analyze the dynamic expression of a large subset of ncRNAs in human and mouse and to identify candidate genes for more detailed functional analysis. In addition to the ncRNA content, probes targeting mRNA content from RefSeq are also included, allowing discovery of coordinated expression with associated protein-coding genes. The result of these assays is a list of ncRNA genes (i.e. SEQ ID NO 28-89) and maps of their sequence boundaries. We have profiled total RNA isolated from melanocytes, keratinocytes, normal human skin, melanoma cell lines and melanoma patient samples to identify differentially expressed ncRNAs in cell lines and tissues. ncRNAs expression in all tested samples were compared to either melanocytes or normal skin. We have identified a group of ncRNAs that are specific for (a) melanocytes (b) Keratinocytes (c) Melanoma cell lines (d) Melanoma patients. […] Probe DNA sequences for this array include: AF086032 (SEQ ID NO 107) […] BC071821 (SEQ ID NO 108) […] C AK130193 (SEQ ID NO 109) […] AL109719 (SEQ ID NO 110) […] AF085888 (SEQ ID NO 111) […] T BC033879 (SEQ ID NO 112) […] AA AK024556 (SEQ ID NO 113) […] Probe nomenclature is standard genebank IDs given by NCBI and other organizations.
Keratinocytes specific signatures were subtracted and resultant ncRNAs were validated by qRT-PCR and Northern blots. Results point out the presence of a group of melanoma specific ncRNAs (i.e. SEQ ID NO 28-89).

Substance | ncRNA array expression, patient 2 | ncRNA array expression, patient 3 | ncRNA array expression, patient 4 | ncRNA array expression, patient 5 | ncRNA array expression, patient 6 | ncRNA array expression, patient 7 | ncRNA array expression, patient 8 | ncRNA array expression, patient 9 | ncRNA array expression, patient 10 | ncRNA array expression, patient 19 | ncRNA array expression, patient 20 | ncRNA array expression, patient 21 | ncRNA array expression, patient 22 | ncRNA array expression, patient 23 | ncRNA array expression, patient 24 | ncRNA array expression, patient 25 | ncRNA array expression, patient 26 | ncRNA array expression, patient 27 | ncRNA array expression, patient 28 | ncRNA array expression, patient 29 | also measured
SEQ ID NO 28 (CTTAATGTATCTAAGGTTGGCTTAATCCTGTCTAAAATCAAGGTATTGGACTAGAACAAT; DNA, backbone and methylation of C not given here; listed as Homo sapiens) | 2.064 | 2.037 | 2.709 | 1.822 | −0.1399 | 2.032 | 1.588 | 0.7923 | −0.2665 | 0.5486 | 1.334 | 0.4728 | 1.388 | 2.286 | 0.3368 | 2.417 | 3.091 | 2.371 | 3.316 | 3.278 | ncRNA array expression, patient 30: −1.35
SEQ ID NO 29 (TTAAATACATGTTTCTAATATTTTAGTGTTTTGTATTTAGGTTATTTATTCTTTGTATCT; DNA, backbone and methylation of C not given here; listed as Homo sapiens) | 3.623 | 2.485 | 3.452 | 2.59 | 1.012 | 2.658 | 3.211 | 2.109 | 2.287 | 0.6625 | 2.377 | 2.504 | 1.796 | 1.689 | 2.143 | 3.284 | 3.992 | 2.873 | 2.81 | 4.101 | ncRNA array expression, patient 30: −2.062
SEQ ID NO 30 (ATTCCAAGGCCTATTAAAATTTCTGAGCATTGCCCATTTCTTTTGCTTTATCTGTAGGAC; DNA, backbone and methylation of C not given here; listed as Homo sapiens) | 4.3 | 3.169 | 2.472 | 3.84 | 2.191 | 4.639 | 2.888 | 0.4508 | 3.549 | 0.5363 | 1.367 | 3.468 | 1.187 | 0.3079 | −1.318 | 1.316 | 2.451 | 4.706 | 0.8038 | 4.757 | ncRNA array expression, patient 30: 1.117
SEQ ID NO 31 (TTGCTTTTGTATTTGTAATTTTATGACATTTCGAAGTTTCTGTGTCTTAACTCTTTTTAA; listed as DNA, chemistry not given here; listed as Homo sapiens) | 2.958 | 2.154 | 2.238 | 2.368 | 1.429 | 4.22 | −0.4178 | 2.588 | 3.165 | 2.105 | 2.853 | 4.304 | 2.578 | 2.86 | 1.373 | 2.408 | 3.487 | 2.156 | 2.25 | 2.949 | ncRNA array expression, patient 30: −2.886
SEQ ID NO 32 (ATTCAAATCTTCATGAATGGCATCACTTGCTTTAGACCCATTTTTTTTTTATTGGTCAGA; DNA, backbone and methylation of C not given here; listed as Homo sapiens) | 1.211 | 0.4737 | 2.717 | 1.51 | 0.7439 | 1.568 | 2.606 | 1.062 | 0.7286 | 2.126 | 3.196 | 0.7443 | 0.9022 | 0.8613 | 1.339 | 4.072 | 3.121 | 3.501 | 0.9963 | 1.473 | ncRNA array expression, patient 30: −2.05
SEQ ID NO 33 (TATTGAATGTACACAAGTAATGATGGAGTTTGATTATATGGTTCATTTTCATTTATCCTA; DNA, backbone and methylation of C not given here; listed as Homo sapiens) | 0.6575 | 0.8123 | 3.512 | 0.6998 | 1.768 | 2.379 | 2.278 | 0.3136 | 1.984 | 1.068 | 1.404 | 1.613 | 0.8185 | −0.4072 | 3.016 | 1.628 | 2.999 | 3.593 | 2.24 | 2.111 | ncRNA array expression, patient 30: −0.2823
